What was measured:
Assay type in all cases: functional
Nilaparvata lugens [1] = assay: Effect on hatchability in Nilaparvata lugens (brown planthopper) at 0.08 ppm measured after 7 days relative to control
Nilaparvata lugens [2] = assay: Insecticidal activity against Nilaparvata lugens (brown planthopper) assessed as mortality at 0.4 ppm measured after 7 days relative to control; conditions: 168 h
Nilaparvata lugens [3] = assay: Effect on life span in Nilaparvata lugens (brown planthopper) adult at 0.4 ppm measured after 7 days relative to control
Nilaparvata lugens [4] = assay: Insecticidal activity against Nilaparvata lugens (brown planthopper) fifth-instar nymphs assessed as mortality at 0.000128 ppm measured after 7 days; conditions: 168 h
Nilaparvata lugens [5] = assay: Insecticidal activity against Nilaparvata lugens (brown planthopper) fifth-instar nymphs assessed as mortality at 0.4 ppm measured after 7 days; conditions: 168 h
Nilaparvata lugens [6] = assay: Effect on oviposition in Nilaparvata lugens (brown planthopper) assessed as eggs laid at 0.4 ppm measured after 7 days relative to control
Nilaparvata lugens [7] = assay: Insecticidal activity against Nilaparvata lugens (brown planthopper) fifth-instar nymphs assessed as mortality at 0.08 ppm measured after 7 days; conditions: 168 h
Nilaparvata lugens [8] = assay: Insecticidal activity against Nilaparvata lugens (brown planthopper) fifth-instar nymphs assessed as mortality at 50 ppm measured after 7 days; conditions: 168 h
Nilaparvata lugens [9] = assay: Insecticidal activity against Nilaparvata lugens (brown planthopper) fifth-instar nymphs assessed as mortality at 0.0032 ppm measured after 7 days; conditions: 168 h
Nilaparvata lugens [10] = assay: Insecticidal activity against Nilaparvata lugens (brown planthopper) assessed as mortality at 0.016 ppm measured after 7 days relative to control; conditions: 168 h
Nilaparvata lugens [11] = assay: Insecticidal activity against Nilaparvata lugens (brown planthopper) fifth-instar nymphs assessed as mortality at 2 ppm measured after 7 days; conditions: 168 h
Nilaparvata lugens [12] = assay: Insecticidal activity against Nilaparvata lugens (brown planthopper) emerged female adult assessed as mortality at 2 ppm measured after 7 days relative to control; conditions: 168 h
Nilaparvata lugens [13] = assay: Effect on hatchability in Nilaparvata lugens (brown planthopper) at 0.016 ppm measured after 7 days relative to control
Nilaparvata lugens [14] = assay: Effect on egg maturity in Nilaparvata lugens (brown planthopper) at 0.00064 ppm measured after 7 days relative to control
Nilaparvata lugens [15] = assay: Effect on oviposition in Nilaparvata lugens (brown planthopper) assessed as eggs laid at 0.016 ppm measured after 7 days relative to control
Nilaparvata lugens [16] = assay: Effect on oviposition in Nilaparvata lugens (brown planthopper) assessed as eggs laid at 10 ppm measured after 7 days relative to control
Nilaparvata lugens [17] = assay: Insecticidal activity against Nilaparvata lugens (brown planthopper) assessed as mortality at 0.000128 ppm measured after 7 days relative to control; conditions: 168 h
Nilaparvata lugens [18] = assay: Insecticidal activity against Nilaparvata lugens (brown planthopper) fifth-instar nymphs assessed as mortality at 0.016 ppm measured after 7 days; conditions: 168 h
Nilaparvata lugens [19] = assay: Insecticidal activity against Nilaparvata lugens (brown planthopper) emerged female adult assessed as mortality at 0.08 ppm measured after 7 days relative to control; conditions: 168 h
Nilaparvata lugens [20] = assay: Effect on hatchability in Nilaparvata lugens (brown planthopper) at 2 ppm measured after 7 days relative to control
Nilaparvata lugens [21] = assay: Effect on oviposition in Nilaparvata lugens (brown planthopper) assessed as eggs laid at 0.000128 ppm measured after 7 days relative to control
Nilaparvata lugens [22] = assay: Insecticidal activity against Nilaparvata lugens (brown planthopper) emerged female adult assessed as mortality at 0.0000256 ppm measured after 7 days relative to control; conditions: 168 h
Nilaparvata lugens [23] = assay: Effect on development of ovarioles in Nilaparvata lugens (brown planthopper) assessed as number of ovarioles at 0.4 ppm measured after 7 days relative to control
Nilaparvata lugens [24] = assay: Insecticidal activity against Nilaparvata lugens (brown planthopper) assessed as mortality at 2 ppm measured after 7 days relative to control; conditions: 168 h
Nilaparvata lugens [25] = assay: Insecticidal activity against Nilaparvata lugens (brown planthopper) emerged female adult assessed as mortality at 0.000128 ppm measured after 7 days relative to control; conditions: 168 h
Nilaparvata lugens [26] = assay: Insecticidal activity against Nilaparvata lugens (brown planthopper) emerged female adult assessed as mortality at 10 ppm measured after 7 days relative to control; conditions: 168 h
Nilaparvata lugens [27] = assay: Effect on oviposition in Nilaparvata lugens (brown planthopper) assessed as eggs laid at 0.0032 ppm measured after 7 days relative to control
Nilaparvata lugens [28] = assay: Effect on development of ovarioles in Nilaparvata lugens (brown planthopper) assessed as number of ovarioles at 0.00064 ppm measured after 7 days relative to control
Nilaparvata lugens [29] = assay: Effect on oviposition in Nilaparvata lugens (brown planthopper) assessed as eggs laid at 0.0000256 ppm measured after 7 days relative to control
Nilaparvata lugens [30] = assay: Insecticidal activity against Nilaparvata lugens (brown planthopper) emerged female adult assessed as mortality at 0.0032 ppm measured after 7 days relative to control; conditions: 168 h
Nilaparvata lugens [31] = assay: Effect on development of ovarioles in Nilaparvata lugens (brown planthopper) assessed as number of ovarioles at 0.016 ppm measured after 7 days relative to control
Nilaparvata lugens [32] = assay: Insecticidal activity against Nilaparvata lugens (brown planthopper) emerged female adult assessed as mortality at 0.016 ppm measured after 7 days relative to control; conditions: 168 h
Nilaparvata lugens [33] = assay: Effect on life span in Nilaparvata lugens (brown planthopper) adult at 0.00064 ppm measured after 7 days relative to control
Nilaparvata lugens [34] = assay: Effect on oviposition in Nilaparvata lugens (brown planthopper) assessed as eggs laid at 0.00064 ppm measured after 7 days relative to control
Nilaparvata lugens [35] = assay: Insecticidal activity against Nilaparvata lugens (brown planthopper) assessed as mortality at 0.08 ppm measured after 7 days relative to control; conditions: 168 h
Nilaparvata lugens [36] = assay: Insecticidal activity against Nilaparvata lugens (brown planthopper) assessed as mortality at 0.00064 ppm measured after 7 days relative to control; conditions: 168 h
Nilaparvata lugens [37] = assay: Effect on life span in Nilaparvata lugens (brown planthopper) adult at 10 ppm measured after 7 days relative to control
Nilaparvata lugens [38] = assay: Insecticidal activity against Nilaparvata lugens (brown planthopper) fifth-instar nymphs assessed as mortality at 0.0000256 ppm measured after 7 days; conditions: 168 h
Nilaparvata lugens [39] = assay: Insecticidal activity against Nilaparvata lugens (brown planthopper) fifth-instar nymphs assessed as mortality at 0.00064 ppm measured after 7 days; conditions: 168 h
Nilaparvata lugens [40] = assay: Effect on oviposition in Nilaparvata lugens (brown planthopper) assessed as eggs laid at 2 ppm measured after 7 days relative to control
Nilaparvata lugens [41] = assay: Insecticidal activity against Nilaparvata lugens (brown planthopper) fifth-instar nymphs assessed as mortality at 10 ppm measured after 7 days; conditions: 168 h
Nilaparvata lugens [42] = assay: Insecticidal activity against Nilaparvata lugens (brown planthopper) assessed as mortality at 0.0032 ppm measured after 7 days relative to control; conditions: 168 h
Nilaparvata lugens [43] = assay: Effect on life span in Nilaparvata lugens (brown planthopper) adult at 0.016 ppm measured after 7 days relative to control
Nilaparvata lugens [44] = assay: Insecticidal activity against Nilaparvata lugens (brown planthopper) assessed as mortality at 50 ppm measured after 7 days relative to control; conditions: 168 h
Nilaparvata lugens [45] = assay: Effect on hatchability in Nilaparvata lugens (brown planthopper) at 0.4 ppm measured after 7 days relative to control
Nilaparvata lugens [46] = assay: Effect on egg maturity in Nilaparvata lugens (brown planthopper) at 0.4 ppm measured after 7 days relative to control
Nilaparvata lugens [47] = assay: Insecticidal activity against Nilaparvata lugens (brown planthopper) emerged female adult assessed as mortality at 0.4 ppm measured after 7 days relative to control; conditions: 168 h
Nilaparvata lugens [48] = assay: Effect on oviposition in Nilaparvata lugens (brown planthopper) assessed as eggs laid at 0.08 ppm measured after 7 days relative to control
Nilaparvata lugens [49] = assay: Insecticidal activity against Nilaparvata lugens (brown planthopper) assessed as mortality at 10 ppm measured after 7 days relative to control; conditions: 168 h
Nilaparvata lugens [50] = assay: Insecticidal activity against Nilaparvata lugens (brown planthopper) emerged female adult assessed as mortality at 0.00064 ppm measured after 7 days relative to control; conditions: 168 h
Nilaparvata lugens [51] = assay: Insecticidal activity against Nilaparvata lugens (brown planthopper) assessed as mortality at 0.0000256 ppm measured after 7 days relative to control; conditions: 168 h
Nilaparvata lugens [52] = assay: Effect on egg maturity in Nilaparvata lugens (brown planthopper) at 0.016 ppm measured after 7 days relative to control

In the case of `CC(C)N1C(=O)N(c2ccccc2)CS/C1=N\C(C)(C)C` [BUPROFEZIN], the Activity (Nilaparvata lugens [1]) is reported as 98%, the mortality at 0.4 ppm (Nilaparvata lugens [2]) is reported as 19% and the Activity (Nilaparvata lugens [3]) is reported as 78%. The mortality at 0.000128 ppm (Nilaparvata lugens [4]) was 0%, the mortality at 0.4 ppm (Nilaparvata lugens [5]) was 7% and the Activity (Nilaparvata lugens [6]) was 79%. For the same compound, the mortality at 0.08 ppm (Nilaparvata lugens [7]) was 0%, the mortality at 50 ppm (Nilaparvata lugens [8]) was 100% and the mortality at 0.0032 ppm (Nilaparvata lugens [9]) was 0%. It also gave a mortality at 0.016 ppm (Nilaparvata lugens [10]) of 3%, a mortality at 2 ppm (Nilaparvata lugens [11]) of 0% and a mortality at 2 ppm (Nilaparvata lugens [12]) of 69%. For the same compound, the Activity (Nilaparvata lugens [13]) was 96%, the Activity (Nilaparvata lugens [14]) was 98% and the Activity (Nilaparvata lugens [15]) was 92%. It also gave an Activity (Nilaparvata lugens [16]) of 0%, a mortality at 0.000128 ppm (Nilaparvata lugens [17]) of 11% and a mortality at 0.016 ppm (Nilaparvata lugens [18]) of 0%. It also gave a mortality at 0.08 ppm (Nilaparvata lugens [19]) of 9%, an Activity (Nilaparvata lugens [20]) of 74% and an Activity (Nilaparvata lugens [21]) of 117%. For the same compound, the mortality at 2.56e-05 ppm (Nilaparvata lugens [22]) was 0%, the Activity (Nilaparvata lugens [23]) was 107% and the mortality at 2 ppm (Nilaparvata lugens [24]) was 69%. The mortality at 0.000128 ppm (Nilaparvata lugens [25]) was 11%, the mortality at 10 ppm (Nilaparvata lugens [26]) was 57% and the Activity (Nilaparvata lugens [27]) was 115%. It also gave an Activity (Nilaparvata lugens [28]) of 103%, an Activity (Nilaparvata lugens [29]) of 97% and a mortality at 0.0032 ppm (Nilaparvata lugens [30]) of 0%. It also gave an Activity (Nilaparvata lugens [31]) of 106%, a mortality at 0.016 ppm (Nilaparvata lugens [32]) of 3% and an Activity (Nilaparvata lugens [33]) of 106%. It also gave an Activity (Nilaparvata lugens [34]) of 88%, a mortality at 0.08 ppm (Nilaparvata lugens [35]) of 9% and a mortality at 0.00064 ppm (Nilaparvata lugens [36]) of 0%. For the same compound, the Activity (Nilaparvata lugens [37]) was 28%, the mortality at 2.56e-05 ppm (Nilaparvata lugens [38]) was 0% and the mortality at 0.00064 ppm (Nilaparvata lugens [39]) was 0%. For the same compound, the Activity (Nilaparvata lugens [40]) was 36%, the mortality at 10 ppm (Nilaparvata lugens [41]) was 89% and the mortality at 0.0032 ppm (Nilaparvata lugens [42]) was 0%. The Activity (Nilaparvata lugens [43]) was 101%, the mortality at 50 ppm (Nilaparvata lugens [44]) was 100% and the Activity (Nilaparvata lugens [45]) was 97%. For the same compound, the Activity (Nilaparvata lugens [46]) was 100%, the mortality at 0.4 ppm (Nilaparvata lugens [47]) was 13% and the Activity (Nilaparvata lugens [48]) was 111%. For the same compound, the mortality at 10 ppm (Nilaparvata lugens [49]) was 95%, the mortality at 0.00064 ppm (Nilaparvata lugens [50]) was 0% and the mortality at 2.56e-05 ppm (Nilaparvata lugens [51]) was 0%. For the same compound, the Activity (Nilaparvata lugens [52]) was 106%.

Source: ChEMBL document CHEMBL3046876, “Effect of Buprofezin on Oviposition of Brown Planthopper, Nilaparvata lugens, at Sub-lethal Dose” (1996)
